We go through eight compounds from ChEMBL document CHEMBL3045770, “Design and synthesis of some thieno[2,3-c]pyridazine derivatives of expected anticancer activity” (2013).

Type in all cases: functional
The subject of assay [1] is SNB-75. Nature of the assay: Cytotoxicity against Homo sapiens (human) SNB75 assessed as cell growth at 10 uM after 48 hr by SRB assay relative to control. Particulars: SNB-75, 48 h, read-out: Activity. For orientation: In SRB staining, fixed cells bind dye roughly in proportion to their protein.
Assay [2] concerns SF-295. Description: Cytotoxicity against Homo sapiens (human) SF295 assessed as cell growth at 10 uM after 48 hr by SRB assay relative to control. Particulars: SF-295, 48 h, read-out: Activity.
The test system of assay [3] is KM12. Nature of the assay: Cytotoxicity against Homo sapiens (human) KM12 assessed as cell growth at 10 uM after 48 hr by SRB assay relative to control. Particulars: KM12, 48 h, read-out: Activity.
In assay [4] the test system is HCT-15. Description: Cytotoxicity against Homo sapiens (human) HCT15 assessed as cell growth at 10 uM after 48 hr by SRB assay relative to control. Particulars: HCT-15, 48 h, read-out: Activity.
Assay [5] has as its system COLO 205. Description: Cytotoxicity against Homo sapiens (human) COLO205 assessed as cell growth at 10 uM after 48 hr by SRB assay relative to control. Particulars: COLO 205, 48 h, read-out: Activity.
For assay [6], the system named is NCI-H522. Nature of the assay: Cytotoxicity against Homo sapiens (human) NCI-H522 assessed as cell growth at 10 uM after 48 hr by SRB assay relative to control. Particulars: NCI-H522, 48 h, read-out: Activity.
Assay [7] deals with HOP-92. Nature of the assay: Cytotoxicity against Homo sapiens (human) HOP92 assessed as cell growth at 10 uM after 48 hr by SRB assay relative to control. Conditions: HOP-92, 48 h, read-out: Activity.
In assay [8] the test system is HOP-62. Nature of the assay: Cytotoxicity against Homo sapiens (human) HOP62 assessed as cell growth at 10 uM after 48 hr by SRB assay relative to control. Conditions: HOP-62, 48 h, read-out: Activity.
The subject of assay [9] is SR. Description: Cytotoxicity against Homo sapiens (human) SR assessed as cell growth at 10 uM after 48 hr by SRB assay relative to control. Particulars: read-out: Activity.
Assay [10] relates to SN12C. Description: Cytotoxicity against Homo sapiens (human) SN12C assessed as cell growth at 10 uM after 48 hr by SRB assay relative to control. Conditions: read-out: Activity.
For assay [11], the system named is MCF7. Nature of the assay: Cytotoxicity against Homo sapiens (human) MCF7 assessed as cell growth at 10 uM after 48 hr by SRB assay relative to control. Particulars: MCF7, 48 h, read-out: Activity.
For assay [12], the system named is UACC-257. Nature of the assay: Cytotoxicity against Homo sapiens (human) UACC257 assessed as cell growth at 10 uM after 48 hr by SRB assay relative to control. Conditions: UACC-257, 48 h, read-out: Activity.
The subject of assay [13] is U-251. Description: Cytotoxicity against Homo sapiens (human) U251 assessed as cell growth at 10 uM after 48 hr by SRB assay relative to control. Particulars: U-251, 48 h, read-out: Activity.
Assay [14] has as its system 786-0. Nature of the assay: Cytotoxicity against Homo sapiens (human) 786-0 assessed as cell growth at 10 uM after 48 hr by SRB assay relative to control. Particulars: 786-0, 48 h, read-out: Activity.
Assay [15] has as its system T47D. Nature of the assay: Cytotoxicity against Homo sapiens (human) T47D assessed as cell growth at 10 uM after 48 hr by SRB assay relative to control. Conditions: read-out: Activity.
The test system of assay [16] is MDA-MB-231. Nature of the assay: Cytotoxicity against Homo sapiens (human) MDA-MB-231 assessed as cell growth at 10 uM after 48 hr by SRB assay relative to control. Particulars: MDA-MB-231, 48 h, read-out: Activity.
Assay [17] relates to Hs-578T. Description: Cytotoxicity against Homo sapiens (human) Hs 578T assessed as cell growth at 10 uM after 48 hr by SRB assay relative to control. Conditions: read-out: Activity.
For assay [18], the system named is HCC 2998. Nature of the assay: Cytotoxicity against Homo sapiens (human) HCC2998 assessed as cell growth at 10 uM after 48 hr by SRB assay relative to control. Conditions: HCC 2998, 48 h, read-out: Activity.
Assay [19] has as its system NCI-H23. Nature of the assay: Cytotoxicity against Homo sapiens (human) NCI-H23 assessed as cell growth at 10 uM after 48 hr by SRB assay relative to control. Particulars: NCI-H23, 48 h, read-out: Activity.
Assay [20] concerns LOX IMVI. Nature of the assay: Cytotoxicity against Homo sapiens (human) LOXIMVI assessed as cell growth at 10 uM after 48 hr by SRB assay relative to control. Particulars: read-out: Activity.
The test system of assay [21] is NCI-H322M. Description: Cytotoxicity against Homo sapiens (human) NCI-H322M assessed as cell growth at 10 uM after 48 hr by SRB assay relative to control. Particulars: read-out: Activity.
The test system of assay [22] is Malme-3M. Nature of the assay: Cytotoxicity against Homo sapiens (human) MALME-3M assessed as cell growth at 10 uM after 48 hr by SRB assay relative to control. Conditions: read-out: Activity.

For `Oc1c(-c2n[nH]c(=S)o2)sc2nnc(-c3ccccc3)c(-c3ccccc3)c12`, the growth at 10 µM in assay [1] was 72.6%; in assay [2], 112%; in assay [3], 119%; in assay [4], 103%; in [5] it was 106%; in assay [6] it was 102%. Besides, the growth at 10 µM turned out to be 72.3% in assay [7]; 99.7% in assay [8]; 83.4% in assay [9]; 94% in [10]; 92% in assay [11]; 97% in assay [12]. Further, the growth at 10 µM in assay [13] is 106%; in assay [14], 108%; in assay [15], 105%; in assay [16] it was 109%; in assay [17], 121%.
For `CC1=NN(C(=O)c2sc3nnc(-c4ccccc4)c(-c4ccccc4)c3c2O)C(=O)C1`, the growth at 10 µM in assay [1] stood at 90%; in assay [2] it was 48.8%; in assay [3], 71.3%; in assay [4], 49%; in assay [5], 111%; in [18], 59.7%. Besides, the growth at 10 µM was found to be 87.4% in assay [6]; 82.6% in [19]; 69.5% in assay [7]; 82.8% in assay [8]; 68.6% in assay [9]; 93.8% in assay [10]. For the same compound, the growth at 10 µM is 85.1% in assay [11]; 86.8% in assay [12]; 97.6% in [20]; 71.7% in [13]; 65.9% in assay [14]; 82.2% in assay [15]. The growth at 10 µM turned out to be 122% in assay [16] and 89.6% in assay [17].
As to `CSc1nnc(-c2sc3nnc(-c4ccccc4)c(-c4ccccc4)c3c2O)o1`, the growth at 10 µM in [1] turned out to be 78.4%; in assay [2], 40.9%; in assay [3], 72.9%; in assay [4], 54.6%; in [5], 110%; in assay [6] it was 96.6%. Moreover, the growth at 10 µM in [8] turned out to be 71.1%; in assay [9] it was 62.5%; in [10] it was 75.7%; in [11], 83.5%; in assay [12], 91.6%; in assay [13], 62.9%. The growth at 10 µM came out at 88.7% in assay [14], 75% in [15], 90.4% in assay [16] and 98.4% in assay [17].
As to `Oc1c(-c2nnc(SCc3ccccc3)o2)sc2nnc(-c3ccccc3)c(-c3ccccc3)c12`, the growth at 10 µM amounted to 87.8% in assay [1]; 107% in assay [3]; 93.6% in assay [4]; 122% in [5]; 96.5% in assay [18]; 88.5% in assay [6]. For the same compound, the growth at 10 µM was determined as 106% in assay [19]; 52.5% in [7]; 105% in assay [8]; 106% in [9]; 93.6% in assay [21]; 99.5% in assay [10]. Also, the growth at 10 µM worked out at 82.2% in assay [11]; 134% in assay [12]; 84% in assay [20]; 122% in assay [13]; 105% in assay [14]; 104% in assay [15]. The values for the growth at 10 µM in assay [16] and in assay [17] were 97.9% and 135%, respectively.
As for `CNc1nnc(-c2sc3nnc(-c4ccccc4)c(-c4ccccc4)c3c2O)s1`, the growth at 10 µM is 87.9% in assay [1]; 91.7% in [2]; 126% in [3]; 98.9% in assay [4]; 131% in assay [5]; 98.4% in [18]. Moreover, the growth at 10 µM in assay [6] worked out at 111%; in assay [19] it was 115%; in [7], 116%; in assay [8] it was 115%; in assay [9], 78.2%; in assay [21] it was 106%. Further, the growth at 10 µM in assay [10] was 94.2%; in assay [11] it was 88.7%; in assay [22], 111%; in assay [12], 94.5%; in assay [20], 103%; in assay [14], 108%. Besides, the figures for the growth at 10 µM in [15], in [16] and in [17] were 97.6%, 104% and 109%, respectively.
`Oc1c(-c2nnc(-c3ccccc3)o2)sc2nnc(-c3ccccc3)c(-c3ccccc3)c12`: the growth at 10 µM amounted to 84.4% in assay [1]; 42.9% in [2]; 72.3% in assay [3]; 36.6% in assay [4]; 102% in assay [5]; 70.4% in assay [18]. The growth at 10 µM is 97.2% in assay [6]; 90.4% in assay [19]; 81.7% in [7]; 73.7% in assay [8]; 46.8% in assay [9]; 42.5% in assay [21]. Besides, the growth at 10 µM in assay [10] is 61.4%; in assay [11], 58%; in [22], 83.5%; in [12], 99.8%; in assay [20], 65.7%; in [14], 79.9%. Besides, the values for the growth at 10 µM in [15], in assay [16] and in [17] were 81.1%, 89.2% and 97%, respectively.
On to `CCOC(=O)c1c(Nc2ccc(S(N)(=O)=O)cc2)nnc(-c2ccccc2)c1-c1ccccc1`, for which the growth at 10 µM in assay [1] was found to be 84.6%; in assay [2] it was 88.5%; in assay [3], 104%; in [4] it was 93.4%; in assay [5] it was 113%; in assay [18], 96.8%. The growth at 10 µM in assay [6] turned out to be 111%; in assay [19], 115%; in assay [7] it was 86.5%; in [8], 108%; in assay [9], 76.1%; in assay [10] it was 104%. The growth at 10 µM was found to be 101% in assay [12]; 99.4% in assay [20]; 95% in assay [13]; 91.3% in assay [15]; 108% in assay [16]; 116% in assay [17].
As to `CCOC(=O)c1c(Nc2ccc(S(=O)(=O)Nc3nccs3)cc2)nnc(-c2ccccc2)c1-c1ccccc1`, the growth at 10 µM amounted to 104% in assay [1]; 101% in assay [2]; 114% in assay [3]; 106% in assay [4]; 114% in assay [5]; 103% in assay [6]. Also, the growth at 10 µM in assay [7] is 84.3%; in [8] it was 117%; in [9], 76.2%; in [10], 94.8%; in assay [12], 104%; in [13], 98.5%. Moreover, the growth at 10 µM in assay [14] came to 109%; in [15] it was 104%; in assay [16], 115%; in [17] it was 118%.
